# Data from PubChem BioAssay AID1963874 (Molecular Pharmacology Branch, DTP, NCI, 2024).
# Tested on: 253994-281-T-J1-PDC KRAS-mutant spheroids with HUVEC/MSC, viability
# Test: Anticancer human tumor 253994-281-T-J1-PDC patient-derived colorectal carcinoma cell line growth inhibition [KRAS2]
# Details: for viability, T/C: stronger effect = lower value
# Procedure, shortened: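 KRAS-mutant tumor cells were grown as spheroids with HUVEC endothelial cells and human MSCs as stroma. Targeted agents were tested alone and with KRAS pathway inhibitors. Doses started at or near clinical Cmax, or 10 microM, descending half-log.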
# [1] = curve of first compound, second compound 0.1 µM
# [2] = curve of first compound, second compound 0.316 µM
# [3] = curve of first compound, second compound 1 µM
# [4] = curve of first compound, second compound 3.16 µM
# [5] = second compound 0.1 µM, first compound 0.0316 µM
# [6] = second compound 0.1 µM, first compound 0.1 µM
# [7] = second compound 0.316 µM, first compound 0.0316 µM
# [8] = second compound 0.316 µM, first compound 0.1 µM
# [9] = second compound 1 µM, first compound 0.0316 µM
# [10] = second compound 1 µM, first compound 0.1 µM
# [11] = second compound 3.16 µM, first compound 0.0316 µM
# [12] = second compound 3.16 µM, first compound 0.1 µM
# 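Note: spheroids exposed to agents for seven days before readout.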
# 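Throughout, for viability, T/C: percent of DMSO vehicle control viability.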
smiles,measurement,setting,value
CCNC(=O)CC1N=C(c2ccc(Cl)cc2)c2cc(OC)ccc2-n2c(C)nnc21 (centres undefined),"viability, T/C",compound 0.0316 µM,105% [middle of 5 runs]
same,"viability, T/C",compound 0.1 µM,103% [middle of 5 runs]
same,"viability, T/C",compound 0.316 µM,95.6% [middle of 5 runs]
same,"viability, T/C",compound 1 µM,96.3% [middle of 5 runs]
same,"viability, T/C",compound 3.16 µM,97.5% [middle of 5 runs]
same,"viability, T/C",compound 10 µM,85.7% [middle of 5 runs]
same,IC50,curve of compound,> 10 µM
CN(C)C/C=C/C(=O)Nc1cc2c(Nc3ccc(F)c(Cl)c3)ncnc2cc1O[C@H]1CCOC1,"viability, T/C",compound 0.000316 µM,96% [middle of 5 runs]
same,"viability, T/C",compound 0.001 µM,94.8% [middle of 5 runs]
same,"viability, T/C",compound 0.00316 µM,89.1% [middle of 5 runs]
same,"viability, T/C",compound 0.01 µM,84.3% [middle of 5 runs]
same,"viability, T/C",compound 0.0316 µM,74.8% [middle of 5 runs]
same,"viability, T/C",compound 0.1 µM,71.7% [middle of 5 runs]
same,IC50,curve of compound,> 0.1 µM
Cn1ncnc1[C@H]1c2n[nH]c(=O)c3cc(F)cc(c23)N[C@@H]1c1ccc(F)cc1 + CNCc1ccccc1-c1csc(C(C)Nc2nc(C)nc3cc(OC)c(OC)cc23)c1,IC50,[1],> 0.1 µM
same,IC50,[2],> 0.1 µM
same,IC50,[3],> 0.1 µM
same,IC50,[4],< 0.000316 µM
same,IC50,"curve of first compound, second compound 10 µM",< 0.000316 µM
same,"viability, T/C","second compound 0.1 µM, first compound 0.000316 µM",103%
same,"viability, T/C","second compound 0.1 µM, first compound 0.001 µM",108%
same,"viability, T/C","second compound 0.1 µM, first compound 0.00316 µM",114%
same,"viability, T/C","second compound 0.1 µM, first compound 0.01 µM",84.5%
same,"viability, T/C",[5],110%
same,"viability, T/C",[6],99.8%
same,"viability, T/C","second compound 0.316 µM, first compound 0.000316 µM",93.2%
same,"viability, T/C","second compound 0.316 µM, first compound 0.001 µM",96.4%
same,"viability, T/C","second compound 0.316 µM, first compound 0.00316 µM",105%
same,"viability, T/C","second compound 0.316 µM, first compound 0.01 µM",94.5%
same,"viability, T/C",[7],108%
same,"viability, T/C",[8],79.5%
same,"viability, T/C","second compound 1 µM, first compound 0.000316 µM",94.4%
same,"viability, T/C","second compound 1 µM, first compound 0.001 µM",91.9%
same,"viability, T/C","second compound 1 µM, first compound 0.00316 µM",87.4%
same,"viability, T/C","second compound 1 µM, first compound 0.01 µM",94.3%
same,"viability, T/C",[9],92.3%
same,"viability, T/C",[10],78.5%
same,"viability, T/C","second compound 3.16 µM, first compound 0.000316 µM",28.7%
same,"viability, T/C","second compound 3.16 µM, first compound 0.001 µM",41.5%
same,"viability, T/C","second compound 3.16 µM, first compound 0.00316 µM",30.3%
same,"viability, T/C","second compound 3.16 µM, first compound 0.01 µM",38.9%
same,"viability, T/C",[11],28.2%
same,"viability, T/C",[12],34.9%
same,"viability, T/C","second compound 10 µM, first compound 0.000316 µM",0.15%
same,"viability, T/C","second compound 10 µM, first compound 0.001 µM",0.19%
same,"viability, T/C","second compound 10 µM, first compound 0.00316 µM",0.15%
same,"viability, T/C","second compound 10 µM, first compound 0.01 µM",0.14%
same,"viability, T/C","second compound 10 µM, first compound 0.0316 µM",0.15%
same,"viability, T/C","second compound 10 µM, first compound 0.1 µM",0.24%
CC1(C)CCC(CN2CCN(c3ccc(C(=O)NS(=O)(=O)c4ccc(NCC5CCOCC5)c([N+](=O)[O-])c4)c(Oc4cnc5[nH]ccc5c4)c3)CC2)=C(c2ccc(Cl)cc2)C1 + C=CC(=O)N1CCN(c2nc(OCC3CCCN3C)nc3c2CCN(c2cccc4cccc(C)c24)C3)CC1CC#N,IC50,"curve of first compound, second compound 0.0316 µM",> 10 µM
same,IC50,[1],6.52 µM
same,IC50,[2],8.92 µM
same,IC50,[3],4.9 µM
same,IC50,[4],< 0.0316 µM
same,"viability, T/C","second compound 0.0316 µM, first compound 0.0316 µM",110%
same,"viability, T/C","second compound 0.0316 µM, first compound 0.1 µM",98.6%
same,"viability, T/C","second compound 0.0316 µM, first compound 0.316 µM",102%
same,"viability, T/C","second compound 0.0316 µM, first compound 1 µM",90.6%
same,"viability, T/C","second compound 0.0316 µM, first compound 3.16 µM",84.5%
same,"viability, T/C","second compound 0.0316 µM, first compound 10 µM",56.7%
same,"viability, T/C",[5],96.9%
same,"viability, T/C",[6],89%
same,"viability, T/C","second compound 0.1 µM, first compound 0.316 µM",87.4%
same,"viability, T/C","second compound 0.1 µM, first compound 1 µM",90.2%
same,"viability, T/C","second compound 0.1 µM, first compound 3.16 µM",64.8%
same,"viability, T/C","second compound 0.1 µM, first compound 10 µM",41.2%
same,"viability, T/C",[7],102%
same,"viability, T/C",[8],99.2%
same,"viability, T/C","second compound 0.316 µM, first compound 0.316 µM",95.6%
same,"viability, T/C","second compound 0.316 µM, first compound 1 µM",92.8%
same,"viability, T/C","second compound 0.316 µM, first compound 3.16 µM",87.1%
same,"viability, T/C","second compound 0.316 µM, first compound 10 µM",45.7%
same,"viability, T/C",[9],83.6%
same,"viability, T/C",[10],94.5%
same,"viability, T/C","second compound 1 µM, first compound 0.316 µM",91.7%
same,"viability, T/C","second compound 1 µM, first compound 1 µM",79.3%
same,"viability, T/C","second compound 1 µM, first compound 3.16 µM",64.3%
same,"viability, T/C","second compound 1 µM, first compound 10 µM",27.8%
same,"viability, T/C",[11],18.6%
same,"viability, T/C",[12],25.2%
same,"viability, T/C","second compound 3.16 µM, first compound 0.316 µM",22%
same,"viability, T/C","second compound 3.16 µM, first compound 1 µM",9.94%
same,"viability, T/C","second compound 3.16 µM, first compound 3.16 µM",0.66%
same,"viability, T/C","second compound 3.16 µM, first compound 10 µM",0.3%
